Data: the NIST ThermoML archive (doi:10.1021/acs.jced.7b00107)
Several values for one entry are separate records, joined by “and”; a condition that tells them apart may be missing. Equal entries are not always repeated.

Assay: molar heat capacity at constant pressure
Conditions: 101.33 kPa, Small (less than 1 g) adiabatic calorimetry

Cl.NC12CC3CC(CC(C3)C1)C2 [1-aminoadamantane hydrochloride]
Conditions | molar heat capacity at constant pressure
118.03 K, Crystal 3 | 98.29 J/K/mol
118.05 K, Crystal 3 | 97.56 J/K/mol
118.53 K, Crystal 3 | 100.2 J/K/mol
118.9 K, Crystal 3 | 105.3 J/K/mol
119.01 K, Crystal 3 | 104 J/K/mol
119.02 K, Crystal 3 | 105.6 J/K/mol
119.31 K, Crystal 3 | 108.3 J/K/mol
119.48 K, Crystal 3 | 110.1 J/K/mol
119.95 K, Crystal 3 | 112.9 J/K/mol
119.99 K, Crystal 3 | 111.4 J/K/mol
120 K, Crystal 2 | 94.01 J/K/mol
120 K, Crystal 3 | 94.01 J/K/mol
120.37 K, Crystal 2 | 108.5 J/K/mol
120.42 K, Crystal 2 | 108.5 J/K/mol
120.89 K, Crystal 2 | 104.8 J/K/mol
120.95 K, Crystal 2 | 106.2 J/K/mol
121.24 K, Crystal 2 | 112.4 J/K/mol
121.37 K, Crystal 2 | 108.6 J/K/mol
121.81 K, Crystal 2 | 125.5 J/K/mol
121.84 K, Crystal 2 | 120 J/K/mol
121.91 K, Crystal 2 | 126.5 J/K/mol
122.28 K, Crystal 2 | 146.1 J/K/mol
122.69 K, Crystal 2 | 168 J/K/mol
122.76 K, Crystal 2 | 187.7 J/K/mol
123.07 K, Crystal 1 | 165.2 J/K/mol and 227.7 J/K/mol
123.1 K, Crystal 1 | 96.21 J/K/mol
123.1 K, Crystal 2 | 96.21 J/K/mol
123.13 K, Crystal 1 | 176.4 J/K/mol
123.47 K, Crystal 1 | 148 J/K/mol
123.61 K, Crystal 1 | 138.3 J/K/mol
123.92 K, Crystal 1 | 106.3 J/K/mol
124.41 K, Crystal 1 | 99.7 J/K/mol
124.5 K, Crystal 1 | 100.8 J/K/mol
124.56 K, Crystal 1 | 99.57 J/K/mol
124.9 K, Crystal 1 | 99.18 J/K/mol
125.12 K, Crystal 1 | 99.65 J/K/mol
125.39 K, Crystal 1 | 98.8 J/K/mol
125.57 K, Crystal 1 | 98.89 J/K/mol
125.88 K, Crystal 1 | 98.68 J/K/mol
126.03 K, Crystal 1 | 99.11 J/K/mol
126.58 K, Crystal 1 | 99.15 J/K/mol
127.3 K, Crystal 1 | 99.61 J/K/mol
127.57 K, Crystal 1 | 99.64 J/K/mol
129.1 K, Crystal 1 | 100.5 J/K/mol
129.28 K, Crystal 1 | 100.6 J/K/mol
130 K, Crystal 1 | 101 J/K/mol
130.63 K, Crystal 1 | 101.5 J/K/mol
131.26 K, Crystal 1 | 101.8 J/K/mol
132.16 K, Crystal 1 | 102.5 J/K/mol
133.24 K, Crystal 1 | 103.2 J/K/mol
133.7 K, Crystal 1 | 103.5 J/K/mol
135.22 K, Crystal 1 | 104.5 J/K/mol
135.23 K, Crystal 1 | 104.6 J/K/mol
136.76 K, Crystal 1 | 105.6 J/K/mol
137.2 K, Crystal 1 | 105.9 J/K/mol
138.29 K, Crystal 1 | 106.7 J/K/mol
139.19 K, Crystal 1 | 107.3 J/K/mol
139.83 K, Crystal 1 | 107.7 J/K/mol
140 K, Crystal 1 | 107.9 J/K/mol
141.18 K, Crystal 1 | 108.6 J/K/mol
141.36 K, Crystal 1 | 108.7 J/K/mol
142.89 K, Crystal 1 | 109.4 J/K/mol
143.17 K, Crystal 1 | 109.5 J/K/mol
144.42 K, Crystal 1 | 109.9 J/K/mol
145.16 K, Crystal 1 | 110.1 J/K/mol
145.95 K, Crystal 1 | 110.4 J/K/mol
147.16 K, Crystal 1 | 110.9 J/K/mol
147.49 K, Crystal 1 | 111.1 J/K/mol
149.02 K, Crystal 1 | 111.7 J/K/mol
149.15 K, Crystal 1 | 111.8 J/K/mol
150 K, Crystal 1 | 112.2 J/K/mol
150.57 K, Crystal 1 | 112.4 J/K/mol
151.15 K, Crystal 1 | 112.7 J/K/mol
152.11 K, Crystal 1 | 113.3 J/K/mol
153.15 K, Crystal 1 | 113.8 J/K/mol
153.64 K, Crystal 1 | 114.2 J/K/mol
155.14 K, Crystal 1 | 114.9 J/K/mol
155.18 K, Crystal 1 | 114.9 J/K/mol
156.72 K, Crystal 1 | 115.7 J/K/mol
157.14 K, Crystal 1 | 116.1 J/K/mol
158.25 K, Crystal 1 | 116.7 J/K/mol
159.14 K, Crystal 1 | 117.2 J/K/mol
159.79 K, Crystal 1 | 117.6 J/K/mol
160 K, Crystal 1 | 117.7 J/K/mol
161.14 K, Crystal 1 | 118.4 J/K/mol
161.32 K, Crystal 1 | 118.5 J/K/mol
162.86 K, Crystal 1 | 119.5 J/K/mol
163.14 K, Crystal 1 | 119.6 J/K/mol
164.39 K, Crystal 1 | 120.4 J/K/mol
165.15 K, Crystal 1 | 120.8 J/K/mol
165.92 K, Crystal 1 | 121.2 J/K/mol
167.15 K, Crystal 1 | 122 J/K/mol
167.45 K, Crystal 1 | 122.3 J/K/mol
168.98 K, Crystal 1 | 123.2 J/K/mol
169.15 K, Crystal 1 | 123.3 J/K/mol
170 K, Crystal 1 | 123.8 J/K/mol
170.51 K, Crystal 1 | 124.1 J/K/mol
171.16 K, Crystal 1 | 124.6 J/K/mol
172.04 K, Crystal 1 | 125 J/K/mol
173.17 K, Crystal 1 | 125.8 J/K/mol
173.57 K, Crystal 1 | 126 J/K/mol
175.1 K, Crystal 1 | 127 J/K/mol
175.17 K, Crystal 1 | 127 J/K/mol
176.62 K, Crystal 1 | 127.9 J/K/mol
177.18 K, Crystal 1 | 128.3 J/K/mol
178.14 K, Crystal 1 | 128.9 J/K/mol
179.19 K, Crystal 1 | 129.6 J/K/mol
179.67 K, Crystal 1 | 130 J/K/mol
180 K, Crystal 1 | 130.1 J/K/mol
181.19 K, Crystal 1 | 130.9 J/K/mol
181.2 K, Crystal 1 | 130.9 J/K/mol
182.7 K, Crystal 1 | 131.9 J/K/mol
183.21 K, Crystal 1 | 132.2 J/K/mol
184.22 K, Crystal 1 | 132.8 J/K/mol
185.23 K, Crystal 1 | 133.5 J/K/mol
185.74 K, Crystal 1 | 133.8 J/K/mol
187.24 K, Crystal 1 | 134.8 J/K/mol
187.25 K, Crystal 1 | 134.8 J/K/mol
188.76 K, Crystal 1 | 135.8 J/K/mol
189.25 K, Crystal 1 | 136.2 J/K/mol
190 K, Crystal 1 | 136.6 J/K/mol
190.27 K, Crystal 1 | 136.9 J/K/mol
191.27 K, Crystal 1 | 137.4 J/K/mol
191.79 K, Crystal 1 | 137.9 J/K/mol
193.28 K, Crystal 1 | 138.8 J/K/mol
193.3 K, Crystal 1 | 138.9 J/K/mol
194.8 K, Crystal 1 | 139.9 J/K/mol
195.3 K, Crystal 1 | 140.1 J/K/mol
